Test results as given in patent US20250049946A1, “SULFONATO RESORCINARENE-COMPLEXED FLUOROQUINOLONES AND METHODS OF USE” (University of Cincinnati, priority 2023, published 2025).

How the values were obtained:
S. aureus = experiment: in vitro antibacterial activity (MIC assay, 96-well, absorbance at 600 nm); format: cell-based, Staphylococcus aureus; conditions: for inhibition of bacterial cells: at higher concentration, S. aureus
Description: (§1) The in vitro antibacterial activity was tested using a Gram-positive bacterial pathogen, S. aureus, and sensitive and resistant strains of a Gram-negative bacterial pathogen, P. aeruginosa using a high-throughput format in a 96-well microtiter plate, as described previously. Briefly, an inoculum of the test organism was grown to mid-log phase in a Luria broth (LB) medium containing 10 g/L tryptone, 5 g/L yeast extract, and 10 g/L sodium chloride. A 50 μL aliquot of the 100-fold diluted bacterial inoculum was placed in each test well. […]. All experiments were performed in triplicate. For each measurement, three samples in each replicate were analyzed and data were recorded as mean±standard deviation (SD). A paired two-tailed t-test was employed for mean comparison, with significance determined at p<0.05. The dcata analysis was conducted using the Excel program.
(§2) The antibacterial effectiveness of complexed FQs was assessed in comparison to uncomplexed FQs against Gram-positive Staphylococcus aureus (S. aureus) and Gram-negative Pseudomonas aeruginosa (P. aeruginosa) through a minimum inhibitory concentration (MIC) assay conducted at various concentrations. […] The percentage growth inhibition of bacterial cells treated with complexed and uncomplexed FQs was determined by comparing with the untreated control (FIGS. 13A-13C). The concentrations tested for P. aeruginosa and S. aureus varied based on the MIC of individual antibiotics. […]

P. aeruginosa = experiment: as above; format: cell-based, Pseudomonas aeruginosa; conditions: for inhibition of bacterial cells: at higher concentration, P. aeruginosa
Description: as §1, §2

[1] = partition coefficient (Ko/w) n-octanol / phosphate buffer; format: physicochemical; conditions: octanol / phosphate buffer pH 7.4, 25 °C, 24 h; complexes with 10 times higher host stock

Row | log P (experimental partition coefficient Ko/w) [1] | Structure (SMILES) | killing of S. aureus (S. aureus; 12 μg/mL, 24 h, FIG. 13A) | inhibition of bacterial cells (S. aureus) | killing of P. aeruginosa bacteria (P. aeruginosa; 4 μg/mL, 24 h, FIG. 13A) | inhibition of bacterial cells (P. aeruginosa) | inhibition at 128 µg/mL (S. aureus; Staphylococcus aureus, 128 μg/mL, 24 h, FIG. 13B, read-out: inhibitory effect on S. aureus cells) | inhibitory effect on P. aeruginosa cells (P. aeruginosa; […] (so in the source), 24 h, FIG. 13B)
1 |  | O=C(O)c1cn(C2CC2)c2cc(N3CCNCC3)c(F)cc2c1=O [CIPRO, ciprofloxacin] | 98.30±0.26% | 90% | 100.67±0.39% | 90% |  | 
2 | −0.41 | C[C@H]1COc2c(N3CCN(C)CC3)c(F)cc3c(=O)c(C(=O)O)cn1c23 [LEVO, levofloxacin] |  | 90% |  | 90% |  | 
3 |  | CCn1cc(C(=O)O)c(=O)c2cc(F)c(N3CCNCC3)cc21 [NOR, norfloxacin] |  | 90% |  | 90% | 97.9 ± 0.38% | 100.43±0.17%
4 | −0.99 | CC1c2cc(c(O)c(CS(=O)(=O)O)c2O)C(C)c2cc(c(O)c(CS(=O)(=O)O)c2O)C(C)c2cc(c(O)c(CS(=O)(=O)O)c2O)C(C)c2cc1c(O)c(CS(=O)(=O)O)c2O (stereo not drawn) [SRsC1, sulfonato-C-methylresorcin[4]arene] |  |  |  |  |  | 
